Data taken from patent publication US20250108023A1, “Products for Masking Bitterness” (The Third People's Hospital of Henan Province, priority 2023, published 2025).
Where two headings read alike, the source gives them in different places.

What was measured:
[1] = Oral spray bitterness masking taste test by volunteers with Coptis chinensis standard bitter solution; assay type: in vivo, healthy volunteers; design: key to bitterness value after drug: bitterness value 0.5–5.5; 1 = none, 5 = unbearable; key to Reduction of bitterness: drop in bitterness value (0.5–5.5 scale) from initial; conditions: for Duration >: retention time until bitterness rises; for inhibition in vivo at 0.2 %: Homo sapiens, read-out: Reduction range; for bitterness value after drug: initial bitterness 4.0, 16 cases; for Reduction of bitterness: original bitterness average 4.0, average of 31 cases
Protocol: Purpose of the experiment: it is to screen out compounds that take effect within 5 seconds, last for 30-120 seconds, and it is expected, by using such kind of compounds, the taste of the drug cannot be felt during the duration (30-120 seconds) when taking the drug.
Principle of the experiment: simulate the process of taking medicine and using the taste masking agents, first spray about 0.5 ml of oral spray on the throat (3 times), and after it takes effect quickly, taste 10 ml of bitter standard solution to screen drugs that can be used in advance and can mask the bitter taste.
• 1: Volunteer screening. The research team strictly screened the recruited volunteers and finally selected healthy volunteers as subjects. They signed informed consent forms before the experiment; • 2: Standard bitterness sample preparation. The bitterness of the samples was divided into five levels, and each level was assigned a certain bitterness value range; • 3: The sensory standard was corrected by the oral taste evaluation method, that is, the sensory standard was corrected by comparing the taste evaluation of the volunteers with the established bitterness value of the reference sample group. Specific steps: when the volunteers are doing the oral tasting test, the reference solutions of various concentrations are placed in the tasting cups, and the volunteers hold one of the solutions in their mouths, time it, and rinse their mouths by using the solution so that the bitter taste perception area at the root and sides of the tongue can fully feel the bitter taste of the drug. […] Then dilute all the selected taste masking drugs, prepare the solution, take 10 ml and put it into the spray bottle, spray it into the mouth 3 times, stay for 5 seconds, drink 10 ml of standard bitterness solution, feel and record the bitterness value, keep the standard bitterness solution in the mouth until the bitterness rises, and record the retention time. • 5: Quality control. […] Since the experimental objects are biological samples and there are individual differences between different subjects, there may be individual outliers in the experimental test data. The Grubbs test method was used to exclude outliers in the data, and then the experimental data were plotted in tables and curves for data analysis.
It is necessary to process the experimental data. Specifically, the Grubbs test method was used to perform a circular test and elimination of outliers on the data, and a bilateral test was used to eliminate outliers in the oral test. Considering the characteristics of biological samples, the detection level was selected as 0.1 and the elimination level was selected as 0.05 in this experiment.
The experimental medicinal material processing method mentioned in the above technical scheme is as follows: Preparation of bitter standard solution, use 10 g of Coptis chinensis powder, add 100 ml of pure water above 90 degrees, stir, let stand for 20 minutes, take the supernatant for use, determine the standard bitterness of 4.0 degrees by oral tasting, dilute 5 times, determine the standard bitterness of 2.0 degrees, dilute 2.0 degrees again 5 times, determine the standard bitterness of 0.5 degrees. Compare with the bitterness scoring table, (level 1 means “no bitterness or almost no bitterness”, the bitterness value is 0.5˜1.5; level 2 means “slightly bitter”, the bitterness value is 1.5˜2.5; level 3 means “bitter but acceptable”, the bitterness value is 2.5˜3.5; level 4 means “very bitter, but still tolerable”, the bitterness value is 3.5˜4.5; level 5 means “unbearable bitterness”, the bitterness value is 4.5˜5.5). Adjust the judgment and cognition of bitterness.
The standard bitterness solution used in this experiment to verify the experimental effect is a 4.0 degree bitterness solution of Coptis chinensis prepared according to the above method.

[2] = Broad-spectrum taste masking test on decoctions of extremely bitter Chinese herbal medicine slices; assay type: in vivo, healthy volunteers; design: key: reduction in bitterness degrees on a 5-degree graduation scale; conditions: 0.1% taste masking agent in 40% ethanol
Protocol: According to the standard of decocting 100 ml of liquid from 10 g of dry Chinese herbal medicine slices (decoction method: use a stainless steel container, and keep for 20 minutes after boiling), from 300 commonly used Chinese herbal medicine slices, combined with the Chinese Pharmacopoeia, more than 20 Chinese herbal medicines with bitter or extremely bitter properties written in the pharmacopoeia were selected, including Bletilla striata, Cortex qin, Stephania tetrandra, Apricot kernel, Belamcanda chinensis, Angelica dahurica, Lotus seed heart, Toosendan fruit, Andrographis paniculata, Sophora flavescens, Coptis chinensis, Gentiana scabra, Forsythia suspensa, Sophora japonica, Phellodendron amurense, Scutellaria baicalensis, Platycodon grandiflorum, Notopterygium wilfordii, Saposhnikovia divaricata, Perilla frutescens, Zanthoxylum bungeana, Osmanthus fragrans, Sophora flavescens, and Chrysanthemum officinale, totally 24 kinds of Chinese herbal medicines.
Finally, through the 5-degree graduation method, 2 species with a bitterness higher than 3.5 (moderate bitterness) and 7 species with a bitterness higher than 5 degrees (highly bitter, extremely bitter, accompanied by nausea) were screened out, a total of 9 species (Angelica pubescens, Lotus Seed Heart, Toosendan, Andrographis paniculata, Sophora flavescens, Coptis chinensis, Gentiana scabra, Forsythia suspensa, Sophora japonica) are selected as bitterness representatives to participate in the bitterness masking experiment. (Note: The bitterness of Coptis chinensis slices can reach 5.2 after 20 minutes of water decoction. The reference standard solution is 90-degree water brewing Coptis chinensis powder, it is automatically cooled to obtain a solution with a bitter taste of 4.0. Because Coptis chinensis has been used as a standard bitter liquid, it is no longer used).
The experimental method is the same as the previous part.

[3] = 0.2% solution in 60% ethanol as oral spray
[4] = 0.2% solution in 60% ethanol as oral spray, relative to original bitterness 4.0
[5] = concentration 0.001% in 60% ethanol
[6] = concentration 0.005% in 60% ethanol
[7] = concentration 0.02% in 60% ethanol
[8] = concentration 0.10% in 60% ethanol
[9] = concentration 0.50% in 60% ethanol

Compound	Duration > [1, 3]	inhibition in vivo at 0.2 % [1, 4]	bitterness value after drug [1, 5]	bitterness value after drug [1, 6]	bitterness value after drug [1, 7]	bitterness value after drug [1, 8]	bitterness value after drug [1, 9]	Reduction of bitterness [1, 3]	Reduction range [1, 4]	further results
O=C(/C=C/C=C/c1ccc2c(c1)OCO2)N1CCCCC1 [Piperine, (E,E)-1-[5-(1,3-benzodioxol-5-yl)-1-oxo-2,4-pentadieny1]-piperidine]	> 30 s	52.5%	3.9	2.5	2.3	1.9	1.9			
CC1CC(O)CC(C)(C)C1 (stereo not shown) [Trimethylcyclohexanol]								0	0.00%	
trans-caryophyllene	> 30 s		3.8	2.6	1.9	1.7	1.8	2.3	57.50%	
O=C(CCc1ccc(O)cc1)c1c(O)cc(O)cc1O [Phloretin]		0%								
CCOC(=O)CNC(=O)[C@@H]1C[C@H](C)CC[C@H]1C(C)C [Cooling agent WS-5, [((IR, 2S, 5R)-2-isopropyl-5-methyl-cyclohexanecarbonyl)-amino]-ethyl acetate]	> 100 s		2.6	1.8	1.7	1.7	1.8	2.3	57.50%	
CCCCCC1=C(C)CCC1=O [Dihydrojasmone]								0	0.00%	
O=c1c(O)c(-c2ccc(O)c(O)c2)oc2cc(O)cc(O)c12 [Quinolide]		0%								
COC(=O)[C@@H]1CC2=CC(=O)CC[C@]2(C)[C@@]23O[C@@H]2C[C@@]2(C)[C@@H](CC[C@@]24CCC(=O)O4)[C@H]13 [Eplerenone, reference compound]		0%								
CCCN(CCC)S(=O)(=O)c1ccc(C(=O)O)cc1 [Probenecid, reference compound]	> 30 s	12.5%								
Dodecalactone								0	0.00%	
CCNC(=O)[C@@H]1C[C@H](C)CC[C@H]1C(C)C [Menthamide, N-ethyl-L-menthyl carboxamide]	> 120 s		2.4	1.8	1.5	1.5	1.6	2.5	62.50%	Bitterness reduction value ([2]; Andrographis paniculata, original bitterness 5): 0.5; Bitterness reduction value ([2]; Forsythia suspensa, original bitterness 3): 1.7; Bitterness reduction value ([2]; Gentiana, original bitterness 5): 1; Bitterness reduction value ([2]; Lotus seed heart, original bitterness 5): 2.8; Bitterness reduction value ([2]; Puhuo, original bitterness 5): 2.1; Bitterness reduction value ([2]; Sophora flavescens, original bitterness 5): 1; Bitterness reduction value ([2]; Toulianzi, original bitterness 5): 1
Cc1ccc(C(C)C)cc1O [Carvacrol]										inhibition in vivo at 0.2 % ([1]; po): 0%
COC(=O)C1=C(C)NC(C)=C(C(=O)OC)C1c1ccccc1[N+](=O)[O-] [Nifedipine, reference compound]		0%								
O=S(=O)([O-])[O-].[Mg+2] [Magnesium sulfate]	> 20 s		3.5	3.2	2.8	2.5	2.3	1.5	37.50%	
CC1(C)C2CCC1(C)C(O)C2 (stereo not shown) [Borneolum, 2-borneol]	> 10 s	52.5%	4	3.4	2.6	1.9	2.2			
CCOC(=O)C1=C(COCCN)NC(C)=C(C(=O)OC)C1c1ccccc1Cl (stereo not shown) [Amlodipine, reference compound]		0%								
